# Test system: HBsAg
# Assay: HBsAg assay (chemiluminescence immunoassay of secreted HBsAg)
# Assay type: cell-based, HBV
# Details: Hepatitis B virus, HepG2.2.15, HBsAg secretion, HepG2.2.15 cells, CLIA of culture supernatant
# How it was run: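 HepG2.2.15 cells, in duplicate, treated with three-fold serial compound dilutions (1% DMSO final); secreted HBsAg in supernatant quantified by chemiluminescence immunoassay; IC50 is the concentration reducing HBsAg secretion by 50% versus the DMSO control.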
row,SMILES,IC50 [nM]
1,"CC1c2cnc(-c3ccccn3)nc2CCN1c1cc(F)cc(N2CCC(C(=O)NS(C)(=O)=O)C2)n1 (centres unmarked) [Example 85, 1-[4-fluoro-6-[5-methyl-2-(2-pyridyl)-7,8-dihydro-5H-pyrido[4,3-d]pyrimidin-6-yl]-2-pyridyl]-N-methylsulfonyl-pyrrolidine-3-carboxamide]",264
2,"COC1CN(c2cc(N3CCc4nc(-c5ncccn5)ncc4C3C)cc(F)n2)C1 (centres unmarked) [Example 148, 6-[2-Fluoro-6-(3-methoxyazetidin-1-yl)-4-pyridyl]-5-methyl-2-pyrimidin-2-yl-7,8-dihydro-5H-pyrido[4,3-d]pyrimidine]",21
3,"CC1c2cnc(-c3ncccn3)nc2CCN1c1cc(N2CCN(S(C)(=O)=O)C(C)(C)C2)cc(F)n1 (centres unmarked) [Example 100, 6-[4-(3,3-dimethyl-4-methylsulfonyl-piperazin-1-yl)-6-fluoro-2-pyridyl]-5-methyl-2-pyrimidin-2-yl-7,8-dihydro-5H-pyrido[4,3-d]pyrimidine]",13
4,"CC1c2cnc(-c3ncccn3)nc2CCN1c1cc(N2CCOC(C)(C)C2)cc(F)n1 (centres unmarked) [Example 8, 4-[2-fluoro-6-(5-methyl-2-pyrimidin-2-yl-7,8-dihydro-5H-pyrido[4,3-d]pyrimidin-6-yl)-4-pyridyl]-2,2-dimethyl-morpholine]",11
5,"CC1c2cnc(-c3ncccn3)nc2CCN1c1cc(N2CC(C(N)=O)C2)cc(F)n1 (centres unmarked) [Example 82, 1-[2-fluoro-6-(5-methyl-2-pyrimidin-2-yl-7,8-dihydro-5H-pyrido[4,3-d]pyrimidin-6-yl)-4-pyridyl]azetidine-3-carboxamide]",149
6,"CC1CCN(c2cc(F)nc(N3CCc4nc(-c5ncccn5)ncc4C3C)c2)C1 (centres unmarked) [Example 18, 6-[6-fluoro-4-(3-methylpyrrolidin-1-yl)-2-pyridyl]-5-methyl-2-pyrimidin-2-yl-7,8-dihydro-5H-pyrido[4,3-d]pyrimidine]",3
7,"CC1c2cnc(-c3ncccn3)nc2CCN1c1cc(N2CCC(C(=O)O)CC2)cc(F)n1 (centres unmarked) [Example 52, 1-[2-fluoro-6-(5-methyl-2-pyrimidin-2-yl-7,8-dihydro-5H-pyrido[4,3-d]pyrimidin-6-yl)-4-pyridyl]piperidine-4-carboxylic acid]",1040
8,"CC1c2cnc(-c3ncccn3)nc2CCN1c1cc(N(C)C(=O)C2CC2)cc(F)n1 (centres unmarked) [Example 156, N-[2-Fluoro-6-(5-methyl-2-pyrimidin-2-yl-7,8-dihydro-5H-pyrido[4,3-d]pyrimidin-6-yl)-4-pyridyl]-N-methyl-cyclopropanecarboxamide]",30
9,"CC1c2cnc(-c3ncccn3)nc2CCN1c1cc(F)cc(N2CCOC(C(N)=O)C2)n1 (centres unmarked) [Example 47, 4-[4-fluoro-6-(5-methyl-2-pyrimidin-2-yl-7,8-dihydro-5H-pyrido[4,3-d]pyrimidin-6-yl)-2-pyridyl]morpholine-2-carboxamide]",33
10,"CC1c2cnc(-c3ncccn3)nc2CCN1c1cc(N2CC(CO)CC2=O)cc(F)n1 (centres unmarked) [Example 153, 1-[2-Fluoro-6-(5-methyl-2-pyrimidin-2-yl-7,8-dihydro-5H-pyrido[4,3-d]pyrimidin-6-yl)-4-pyridyl]-4-(hydroxymethyl)pyrrolidin-2-one]",32
11,"COCC1CN(c2cc(F)nc(N3CCc4nc(-c5ncccn5)ncc4C3C)c2)CCO1 (centres unmarked) [Example 14, 4-[2-fluoro-6-(5-methyl-2-pyrimidin-2-yl-7,8-dihydro-5H-pyrido[4,3-d]pyrimidin-6-yl)-4-pyridyl]-2-(methoxymethyl)morpholine]",17
12,"CC(=O)N1CCN(c2cc(F)cc(N3CCc4nc(-c5ccccn5)ncc4C3C)n2)CC1 (centres unmarked) [Example 70, 1-[4-[4-fluoro-6-[5-methyl-2-(2-pyridyl)-7,8-dihydro-5H-pyrido[4,3-d]pyrimidin-6-yl]-2-pyridyl]piperazin-1-yl]ethanone]",16
13,CC1c2cnc(-c3ccccn3)nc2CCN1c1cc(NCC(F)F)cc(F)n1 (centres unmarked) [Example 79],71
14,"CC1c2cnc(-c3ncccn3)nc2CCN1c1cc(N(CCCCC(N)=O)CC2CC2)cc(F)n1 (centres unmarked) [Example 143, 5-[Cyclopropylmethyl-[2-fluoro-6-(5-methyl-2-pyrimidin-2-yl-7,8-dihydro-5H-pyrido[4,3-d]pyrimidin-6-yl)-4-pyridyl]amino]pentanamide]",176
15,"CC1c2cnc(-c3ncccn3)nc2CCN1c1cc(N(C)S(C)(=O)=O)cc(F)n1 (centres unmarked) [Example 159, N-[2-fluoro-6-(5-methyl-2-pyrimidin-2-yl-7,8-dihydro-5H-pyrido[4,3-d]pyrimidin-6-yl)-4-pyridyl]-N-methyl-methanesulfonamide]",14
16,"COC1CN(c2cc(F)cc(N3CCc4nc(-c5ncccn5)ncc4C3C)n2)C1 (centres unmarked) [Example 111, 6-[4-fluoro-6-(3-methoxyazetidin-1-yl)-2-pyridyl]-5-methyl-2-pyrimidin-2-yl-7,8-dihydro-5H-pyrido[4,3-d]pyrimidine]",26

row,SMILES,IC50 [nM]
1,"CC1c2cnc(-c3ncccn3)nc2CCN1c1cc(F)cc(N2CCC(F)(F)C2)n1 (centres unmarked) [Example 23, 6-[6-(3,3-difluoropyrrolidin-1-yl)-4-fluoro-2-pyridyl]-5-methyl-2-pyrimidin-2-yl-7,8-dihydro-5H-pyrido[4,3-d]pyrimidine]",5
2,"CC1c2cnc(-c3ncccn3)nc2CCN1c1cc(F)cc(N2CCC(NS(C)(=O)=O)CC2)n1 (centres unmarked) [Example 89, N-[1-[4-fluoro-6-(5-methyl-2-pyrimidin-2-yl-7,8-dihydro-5H-pyrido[4,3-d]pyrimidin-6-yl)-2-pyridyl]-4-piperidyl]methanesulfonamide]",12
3,"CC(=O)NC1CN(c2cc(F)nc(N3CCc4nc(-c5ncccn5)ncc4C3C)c2)C1 (centres unmarked) [Example 132, N-[1-[2-fluoro-6-(5-methyl-2-pyrimidin-2-yl-7,8-dihydro-5H-pyrido[4,3-d]pyrimidin-6-yl)-4-pyridyl]azetidin-3-yl]acetamide]",24
4,"CC1c2cnc(-c3ncccn3)nc2CCN1c1cc(NCCCCCC(=O)O)cc(F)n1 (centres unmarked) [Example 1, 6-[[2-fluoro-6-(5-methyl-2-pyrimidin-2-yl-7,8-dihydro-5H-pyrido[4,3-d]pyrimidin-6-yl)-4-pyridyl]amino]hexanoic acid]",1500
5,"CC1c2cnc(-c3ncccn3)nc2CCN1c1cc(N2CCNC(C(=O)O)C2)cc(F)n1 (centres unmarked) [Example 50, 4-[2-Fluoro-6-(5-methyl-2-pyrimidin-2-yl-7,8-dihydro-5H-pyrido[4,3-d]pyrimidin-6-yl)-4-pyridyl]piperazine-2-carboxylic acid]",1940
6,"CC1c2cnc(-c3ncccn3)nc2CCN1c1cc(F)cc(N2CC(C(=O)NS(C)(=O)=O)C2)n1 (centres unmarked) [Example 63, 1-[4-fluoro-6-(5-methyl-2-pyrimidin-2-yl-7,8-dihydro-5H-pyrido[4,3-d]pyrimidin-6-yl)-2-pyridyl]-N-methylsulfonyl-azetidine-3-carboxamide]",5420
7,"CC1c2cnc(-c3ncccn3)nc2CCN1c1cc(F)cc(N2CCC(C(=O)NS(C)(=O)=O)CC2)n1 (centres unmarked) [Example 65, 1-[4-fluoro-6-(5-methyl-2-pyrimidin-2-yl-7,8-dihydro-5H-pyrido[4,3-d]pyrimidin-6-yl)-2-pyridyl]-N-methylsulfonyl-piperidine-4-carboxamide]",4440
8,"CC1c2cnc(-c3ncccn3)nc2CCN1c1cc(N(C)S(=O)(=O)C2CC2)cc(F)n1 (centres unmarked) [Example 160, N-[2-fluoro-6-(5-methyl-2-pyrimidin-2-yl-7,8-dihydro-5H-pyrido[4,3-d]pyrimidin-6-yl)-4-pyridyl]-N-methyl-cyclopropanesulfonamide]",6
9,"CC1c2cnc(-c3ccccn3)nc2CCN1c1cc(F)cc(N2CCC(C(N)=O)C2)n1 (centres unmarked) [Example 61, 1-[4-fluoro-6-[5-methyl-2-(2-pyridyl)-7,8-dihydro-5H-pyrido[4,3-d]pyrimidin-6-yl]-2-pyridyl]pyrrolidine-3-carboxamide]",22
10,"CC1c2cnc(-c3ncccn3)nc2CCN1c1cc(N2CCC(C(N)=O)C2)cc(F)n1 (centres unmarked) [Example 44, 1-[2-fluoro-6-(5-methyl-2-pyrimidin-2-yl-7,8-dihydro-5H-pyrido[4,3-d]pyrimidin-6-yl)-4-pyridyl]pyrrolidine-3-carboxamide]",54
11,"CC1c2cnc(-c3ncccn3)nc2CCN1c1cc(F)nc(N2CC3(COC3)C2)c1 (centres unmarked) [Example 158, 6-[6-Fluoro-4-(5-methyl-2-pyrimidin-2-yl-7,8-dihydro-5H-pyrido[4,3-d]pyrimidin-6-yl)-2-pyridyl]-2-oxa-6-azaspiro[3.3]heptane]",48
12,"CC1c2cnc(-c3ncccn3)nc2CCN1c1cc(N2CCC(NS(C)(=O)=O)CC2)cc(F)n1 (centres unmarked) [Example 88, N-[1-[2-fluoro-6-(5-methyl-2-pyrimidin-2-yl-7,8-dihydro-5H-pyrido[4,3-d]pyrimidin-6-yl)-4-pyridyl]-4-piperidyl]methanesulfonamide]",18
13,"CC1c2cnc(-c3ncccn3)nc2CCN1c1cc(N2CCCC2=O)cc(F)n1 (centres unmarked) [Example 113, 1-[2-Fluoro-6-(5-methyl-2-pyrimidin-2-yl-7,8-dihydro-5H-pyrido[4,3-d]pyrimidin-6-yl)-4-pyridyl]pyrrolidin-2-one]",4
14,"CC1c2cnc(-c3ncccn3)nc2CCN1c1cc(F)cc(N2CC(CO)C2)n1 (centres unmarked) [Example 136, [1-[4-fluoro-6-(5-methyl-2-pyrimidin-2-yl-7,8-dihydro-5H-pyrido[4,3-d]pyrimidin-6-yl)-2-pyridyl]azetidin-3-yl]methanol]",23
15,"CC1c2cnc(-c3ncccn3)nc2CCN1c1cc(F)cc(N2CC3(COC3)C2)n1 (centres unmarked) [Example 129, 6-[4-fluoro-6-(5-methyl-2-pyrimidin-2-yl-7,8-dihydro-5H-pyrido[4,3-d]pyrimidin-6-yl)-2-pyridyl]-2-oxa-6-azaspiro[3.3]heptane]",36
16,"CC1c2cnc(-c3ccccn3)nc2CCN1c1cc(N2CCCC(C(N)=O)C2)cc(F)n1 (centres unmarked) [Example 75, 1-[2-fluoro-6-[5-methyl-2-(2-pyridyl)-7,8-dihydro-5H-pyrido[4,3-d]pyrimidin-6-yl]-4-pyridyl]piperidine-3-carboxamide]",39
